Tests used:
[1] = target: human UNG (Homo sapiens, UniProt P13051); type: biochemical
[2] = cited from earlier work
[3] = cited from earlier work; remark: listed apart in the source

Sequence of human UNG (P13051 whole entry): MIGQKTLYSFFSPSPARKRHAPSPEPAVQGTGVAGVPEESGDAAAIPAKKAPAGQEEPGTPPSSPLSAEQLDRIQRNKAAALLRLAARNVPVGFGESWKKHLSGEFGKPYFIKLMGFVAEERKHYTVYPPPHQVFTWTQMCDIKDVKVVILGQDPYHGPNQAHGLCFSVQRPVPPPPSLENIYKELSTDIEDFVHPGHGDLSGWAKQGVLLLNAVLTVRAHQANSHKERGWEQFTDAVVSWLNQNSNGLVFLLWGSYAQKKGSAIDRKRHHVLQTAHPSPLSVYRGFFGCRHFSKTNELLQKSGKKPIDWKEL

O=C(O)c1cccc(CNCCCO/N=C/c2cc(=O)[nH]c(=O)[nH]2)c1 [compound 22]
ΔΔG of binding on switching amine to oxime linkages ([1]; difference free energies relative to DA (27), Figure 4): -0.6 kcal/mol

CNCc1ccccc1 [N-methyl-benzyl amine]
pKa [2]: 9.8

O=C(O)c1cccc(/C=N/OCCCNCc2cc(=O)[nH]c(=O)[nH]2)c1 [compound 6]
free energy change more negative than DO ([1]; MA1 compared with DO): -2.0 kcal/mol

C=CC[C@@H]1/C=C(\C)C[C@H](C)C[C@H](OC)[C@H]2O[C@@](O)(C(=O)C(=O)N3CCCC[C@H]3C(=O)O[C@H](/C(C)=C/[C@@H]3CC[C@@H](O)[C@H](OC)C3)[C@H](C)[C@@H](O)CC1=O)[C@H](C)C[C@@H]2OC [FK506]
binds less tightly than expected from summing the binding free energies of its component fragments [3]: about 3 kcal/mol
